The values that follow come from US20060281711A1, “IL-12 modulatory compounds” (Synta Pharmaceuticals Corp., priority 2005, published 2006).

One may read the IC50 as the concentration that inhibits the measured activity by half.

Bounds are passed on as bounds.

Experiment [1] deals with Adjuvant arthritis (AA) in female Lewis rats. Description: Treatment of adjuvant arthritis in rats. It counts as in vivo, rat. To be noted: 20 mg/kg dose, orally once a day for 7 days (day 7-14). How it is done: Adjuvant arthritis (AA) was induced in female Lewis rats by the intracutaneous injection (base of the tail) of 0.1 mL of a 10 mg/mL bacterial suspension made from ground, heat-killed Mycobacterium tuberculosis H37Ra suspended in incomplete Freund's adjuvant. Rats were given a test compound orally once a day for 7 days (day 7-14), starting day 7 after mycobacterium induction. The development of polyarthritis was monitored daily by macroscopic inspection and assignment of an arthritis index to each animal, during the critical period (days 10 to 25 post-immunization).
The intensity of polyarthritis was scored according to the following scheme: (a) Grade each paw from 0 to 3 based on erythema, swelling, and deformity of the joints: 0 for no erythema or swelling; 0.5 if swelling is detectable in at least one joint; 1 for mild swelling and erythema; 2 for swelling and erythema of both tarsus and carpus; and 3 for ankylosis and bony deformity. Maximum score for all 4 paws is thus 12. (b) Grade for other parts of the body: for each ear, 0.5 for redness and another 0.5 if knots are present; 1 for connective tissue swelling (saddle nose); and 1 for the presence of knots or kinks in the tail. The highest possible arthritic index is 16.
Experiments with the AA model were repeated four times. […] The arthritis score used in this model is a reflection of the inflammatory state of the structures monitored and the results therefore show the ability of the test compound to provide relief for this aspect of the pathology.

A further experiment has as its system IL-12. Description: Human in vitro assay: inhibition of IL-12 production in stimulated human PBMC or THP-1 cells (ELISA). It counts as cell-based. The following applies: read-out: IC50 Range (in vitro IC50 for IL-12). An excerpt: The biological activities of a compound of the invention can be evaluated by a number of cell-based assays. One of such assays can be conducted using cells from human peripheral blood mononuclear cells (PBMC) or human monocytic cell line (THP-1). The cells are stimulated with a combination of human interferon-γ (IFNγ) and lipopolysaccharide or a combination of IFNγ and Staphylococcus aureus Cowan I in the presence of a test compound. The level of inhibition of IL-12 production can be measured by determining the amount of p70 by using a sandwich ELISA assay with anti-human IL-12 antibodies. IC50 of the test compound can then be determined. Specifically, PBMC or THP-1 cells are incubated with the test compound. Cell viability was assessed using the bioreduction of MTS [3-(4,5-dimethylthiazol-2-yl)-5-(3-carboxymethoxyphenyl)-2-(4-sulfophenyl)-2H-tetrazolium] (Promega, Madison, Wis.).
8. Reagents. Staphylococcus aureus Cowan I (SAC) was obtained from Calbiochem (La Jolla, Calif.), and lipopolysaccharide (LPS, Serratia marscencens) was obtained from Sigma (St. Louis, Mo.). Human and mouse recombinant IFNγ were purchased from Boehringer Mannheim (Mannheim, Germany) and Pharmingen (San Diego, Calif.), respectively.
9. Human In Vitro Assay. Human PBMC were isolated by centrifugation using Ficoll-Paque (Pharmacia Biotech, Uppsala, Sweden) and prepared in RPMI medium supplemented with 10% fetal calf serum (FCS), 100 U/mL penicillin, and 100 μg/mL streptomycin. PBMC were plated in wells of a 96-well plate at a concentration of 5×10^5 cells/well, and primed by adding IFNγ (30 U/mL) for 22 h and stimulated by adding LPS (1 μg/mL), or by adding IFNγ (100 U/mL) and then stimulated by adding SAC (0.01%). A test pyrimidine compound was dissolved in DMSO, and added to wells of the 96-well plate. The final DMSO concentration was adjusted to 0.25% in all cultures, including the compound-free control. Human THP-1 cells were plated in wells, primed by adding IFNγ (100 U/mL) for 22 h and stimulated by adding SAC (0.025%) in the presence of different concentrations of the pyrimidine compound. Cell-free supernatants were taken 18 h later for measurement of cytokines. Cell viability was assessed using the bioreduction of MTS. Cell survival was estimated by determining the ratio of the absorbance in compound-treated groups versus compound-free control.
10. The supernatant was assayed for the amount of […], IL-12p70, or IL-10 by using a sandwich ELISA with anti-human antibodies, i.e., a Human IL-12 p40 ELISA kit from R&D Systems (Berkeley, Calif.), and a Human IL-12 p70 or IL-10 ELISA kit from Endogen (Cambridge, Mass.). Assays were based on the manufacturer's instructions.
The biological activities of compounds of the invention were tested on human PBMC or THP-1 cells.

With `Cc1ccc2c(c1)/C(=N/Nc1cc(N3CCOCC3)nc(OCCN3CCOCC3)n1)CC2` [Compound 3, N-(6-Methyl-indan-1-ylidene)-N′-[6-morpholin-4-yl-2-(2-morpholin-4-yl-ethoxy)-pyrimidin-4-yl]-hydrazine], in experiment [1], the “percent reduction in arthritic score” value worked out at 25% reduction. Moreover, the IC50 in the experiment with IL-12 was less than 1000 nM.
In the case of `COc1ccc2c(c1)/C(=N/Nc1cc(N3CCOCC3)nc(OCCN3CCOCC3)n1)CC2` [Compound 9, N-(6-Methoxy-indan-1-ylidene)-N′-[6-morpholin-4-yl-2-(2-morpholin-4-yl-ethoxy)-pyrimidin-4-yl]-hydrazine], the “percent reduction in arthritic score” value in experiment [1] is 24%. Also, in the experiment on IL-12, the IC50 was less than 1000 nM.
